From patent US20040122068A1, “Pramipexole for the treatment of HIV dementia” (Boehringer Ingelheim Pharma GmbH & Co. KG, priority 2002, published 2004)

Experiments:
isolated mitochondria = experiment: In vitro mitochondria test: H2O2 formation of isolated mitochondria (amplexRed/horseradish peroxidase kinetic test); type: biochemical; details: for Quantity of H2O2 formed: 5 mM succinate alone = 100.0
Excerpt: A. The Reduced H2O2 Formation of Isolated Mitochondria as In Vitro Parameters for Endogenous Radical Stress:
Mitochondria reduce 95% of the oxygen to water.
Overproduction and/or reduced detoxification of superoxide anion and hydrogen peroxide leads to the development of oxidative stress. This is crucially implicated in neuronal cell death in all kinds of neurodegenerative diseases.
In the presence of the energy substrate succinate, isolated mitochondria produce H2O2, which results from the dismutation of superoxide anion. In the presence of amplexRed™ and horseradish peroxidase, the fluorogenic chromophor resorufin is formed, which is measured and quantified in a kinetic test. The quantity of H2O2 formed by the mitochondria can be increased by the addition of the quinone analogue duroquinone.

aconitase = details: mice, oral, 4 days, 2×1 mg/kg/d; brain mitochondria; control (0.9% saline) 100±8%; n=4
Method: Mice (C57BL6) were treated with pramipexole by oral route for 4 days in a dose of 2×1 mg/kg KG/d. The animals were then anaesthetised, killed, their brains were removed and the mitochondria (location of the enzyme and site of the radical formation) were isolated. Then the activity was determined by means of a coupled optical test.

For `CC1=C(C)C(=O)C(C)=C(C)C1=O` [duroquinone], the “Quantity of H2O2 formed” value (isolated mitochondria; 5 mM succinate + 3 μM duroquinone) was 152.2 ± 1.4%.
`CCCNC1CCc2nc(N)sc2C1` (stereo not shown) [pramipexole, 2-amino-4,5,6,7-tetrahydro-6-n-propylamino-benzothiazole] was tested, and the aconitase activity (aconitase) was 153±16%, the “Quantity of H2O2 formed” value (isolated mitochondria; 5 mM succinate + 3 μM duroquinone + 100 μM pramipexole) was 58.3 ± 24.6% and the “duroquinone-induced formation of H2O2 reduced to” value (isolated mitochondria; summary of Table 1) was 50-60%.
